Values after ≈ are worked out from the molar mass of the structure shown.
How the values were obtained:
[1] = system: Pseudomonas aeruginosa L 94; assay: micro liquid serial dilution test (Table II); format: cell-based; settings: L94, 18 hours at 30° C or 37° C, read-out: Minimum inhibitory concentration
Method: (§1) The microbiological activity of the antibiotic preparation towards a number of micoorganisms has been determined by a micro liquid serial dilution test:
(§2) A stock solution of the test compounds at a concentration of 200 μg/ml in 0.05 molar phosphate buffer at a pH of 6.5 was prepared and serial 1:1 dilutions were made with a liquid medium inoculated with the test organism, using conventional glass spot-test plates. The plates were incubated 18 hours at 30° C or 37° C. The minimum inhibitory concentration (MIC) which is the smallest concentration of compound completely inhibiting the growth of the test organism is read and calculated in μg/ml.

[2] = system: Salmonella dublin P 43; assay: micro liquid serial dilution test (Table II); format: cell-based; settings: Salmonella enterica, P43; 18 hours at 30° C or 37° C; read-out: Minimum inhibitory concentration
Method: as §1, §2

[3] = system: Aspergilus niger D 184; assay: micro liquid serial dilution test (Table II); format: cell-based; settings: 18 hours at 30° C or 37° C; read-out: Minimum inhibitory concentration
Method: as §1, §2

[4] = system: Mycoplasma suipneumoniae A 2174; assay: micro liquid serial dilution test (Table II); format: cell-based; settings: Mesomycoplasma hyopneumoniae, A2174; 18 hours at 30° C or 37° C; read-out: Minimum inhibitory concentration
Method: as §1, §2

[5] = system: Streptococcus haemolyticus A 266; assay: micro liquid serial dilution test (Table II); format: cell-based; settings: A266, 18 hours at 30° C or 37° C, read-out: Minimum inhibitory concentration
Method: as §1, §2

[6] = system: Candida parapsilosis A 952; assay: micro liquid serial dilution test (Table II); format: cell-based; settings: Lodderomyces parapsilosis, A952; 18 hours at 30° C or 37° C; read-out: Minimum inhibitory concentration
Method: as §1, §2

[7] = system: Micrococcus flavus A 54; assay: micro liquid serial dilution test (Table II); format: cell-based; settings: A54, 18 hours at 30° C or 37° C, read-out: Minimum inhibitory concentration
Method: as §1, §2

[8] = system: Staphylococcus aureus A 55 (ATCC 65388); assay: micro liquid serial dilution test (Table II); format: cell-based; settings: ATCC65388, 18 h, read-out: Minimum inhibitory concentration
Method: as §1, §2

[9] = system: Streptococcus disgalactiae A 730; assay: micro liquid serial dilution test (Table II); format: cell-based; settings: A730, 18 hours at 30° C or 37° C, read-out: Minimum inhibitory concentration
Method: as §1, §2

[10] = system: Candida albicans A 7; assay: micro liquid serial dilution test (Table II); format: cell-based; settings: A7, 18 hours at 30° C or 37° C, read-out: Minimum inhibitory concentration
Method: as §1, §2

[11] = system: Escherichia coli U 20; assay: micro liquid serial dilution test (Table II); format: cell-based; settings: U20, 18 hours at 30° C or 37° C, read-out: Minimum inhibitory concentration
Method: as §1, §2

[12] = system: Streptococcus agalactiae A 732; assay: micro liquid serial dilution test (Table II); format: cell-based; settings: A732, 18 hours at 30° C or 37° C, read-out: Minimum inhibitory concentration
Method: as §1, §2

[13] = system: Vibrio coli 1846; assay: micro liquid serial dilution test (Table II); format: cell-based; settings: Campylobacter coli, 18 hours at 30° C or 37° C, read-out: Minimum inhibitory concentration
Method: as §1, §2

[14] = system: Proteus mirabilis H 3; assay: micro liquid serial dilution test (Table II); format: cell-based; settings: H3, 18 hours at 30° C or 37° C, read-out: Minimum inhibitory concentration
Method: as §1, §2

[15] = system: Mycoplasma hyorhinus A 2230; assay: micro liquid serial dilution test (Table II); format: cell-based; settings: A2230, 18 hours at 30° C or 37° C, read-out: Minimum inhibitory concentration
Method: as §1, §2

[16] = system: Trichophyton mentagrophytes R 177; assay: micro liquid serial dilution test (Table II); format: cell-based; settings: R177, 18 hours at 30° C or 37° C, read-out: Minimum inhibitory concentration
Method: as §1, §2

[17] = system: Proteus rettgeri A 821; assay: micro liquid serial dilution test (Table II); format: cell-based; settings: Providencia rettgeri, A821; 18 hours at 30° C or 37° C; read-out: Minimum inhibitory concentration
Method: as §1, §2

[18] = system: Staphylococcus aureus A 321; assay: micro liquid serial dilution test (Table II); format: cell-based; settings: A321, 18 hours at 30° C or 37° C, read-out: Minimum inhibitory concentration
Method: as §1, §2

[19] = system: Sarcina lutea ATCC 9341; assay: micro liquid serial dilution test (Table II); format: cell-based; settings: Micrococcus luteus, ATCC9341; 18 hours at 30° C or 37° C; read-out: Minimum inhibitory concentration
Method: as §1, §2

[20] = system: Pasteurella multocida A 723; assay: micro liquid serial dilution test (Table II); format: cell-based; settings: A723, 18 hours at 30° C or 37° C, read-out: Minimum inhibitory concentration
Method: as §1, §2

[21] = system: Bacillus subtilis ATCC 6633; assay: micro liquid serial dilution test (Table II); format: cell-based; settings: ATCC6633, 18 hours at 30° C or 37° C, read-out: Minimum inhibitory concentration
Method: as §1, §2

[22] = system: Bacillus cereus ATCC 9139; assay: micro liquid serial dilution test (Table II); format: cell-based; settings: ATCC9139, 18 hours at 30° C or 37° C, read-out: Minimum inhibitory concentration
Method: as §1, §2

[23] = system: Haemophilus influenzae A 773; assay: micro liquid serial dilution test (Table II); format: cell-based; settings: A773, 18 hours at 30° C or 37° C, read-out: Minimum inhibitory concentration
Method: as §1, §2

[24] = system: Escherichia coli M; assay: micro liquid serial dilution test (Table II); format: cell-based; settings: 18 hours at 30° C or 37° C, read-out: Minimum inhibitory concentration
Method: as §1, §2

[25] = system: Streptococcus faecalis L 80; assay: micro liquid serial dilution test (Table II); format: cell-based; settings: Enterococcus faecalis, L80; 18 hours at 30° C or 37° C; read-out: Minimum inhibitory concentration
Method: as §1, §2

[26] = system: Mycoplasma synoviae A 2082; assay: micro liquid serial dilution test (Table II); format: cell-based; settings: Mycoplasmopsis synoviae, A2082; 18 hours at 30° C or 37° C; read-out: Minimum inhibitory concentration
Method: as §1, §2

[27] = system: Erwinia caretovora W 9; assay: micro liquid serial dilution test (Table II); format: cell-based; settings: W9, 18 hours at 30° C or 37° C, read-out: Minimum inhibitory concentration
Method: as §1, §2

[28] = system: Salmonella typhimurium R 127; assay: micro liquid serial dilution test (Table II); format: cell-based; settings: Salmonella enterica, 18 hours at 30° C or 37° C, read-out: Minimum inhibitory concentration
Method: as §1, §2

[29] = system: Escherichia coli NCTC 8196; assay: micro liquid serial dilution test (Table II); format: cell-based; settings: NCTC8196, 18 hours at 30° C or 37° C, read-out: Minimum inhibitory concentration
Method: as §1, §2

[30] = system: Mycoplasma gallisepticum; assay: in vivo activity against Mycoplasma gallisepticum

With CC=CC=CC1OC(O)(C(CC)C(=O)NCC=CC=C(C)C(OC)C(C)C2OC(C=CC=CC=C(C)C(=O)c3c(O)cc[nH]c3=O)C(O)C2O)C(O)C(O)C1(C)C (stereo not drawn) [mocimycin] the MIC [1] was > 100 µg/mL, the MIC [2] was > 100 µg/mL and the MIC [3] was > 100 µg/mL. The MIC [4] was 1 µg/mL (≈ 1.25 µM), the MIC [5] was 2 µg/mL (≈ 2.51 µM) and the MIC [6] was > 100 µg/mL. For the same compound, the MIC [7] was 4 µg/mL (≈ 5.02 µM), the MIC [8] was 100 µg/mL (≈ 125 µM) and the MIC [9] was 0.6 µg/mL (≈ 0.753 µM). For the same compound, the MIC [10] was > 100 µg/mL, the MIC [11] was > 100 µg/mL and the MIC [12] was 0.9 µg/mL (≈ 1.13 µM). The MIC [13] was 100 µg/mL (≈ 125 µM), the MIC [14] was 50 µg/mL (≈ 62.7 µM) and the MIC [15] was 3 µg/mL (≈ 3.76 µM). For the same compound, the MIC [16] was > 100 µg/mL, the MIC [17] was > 100 µg/mL and the MIC [18] was 100 µg/mL (≈ 125 µM). The MIC [19] was 25 µg/mL (≈ 31.4 µM), the MIC [20] was 4 µg/mL (≈ 5.02 µM) and the MIC [21] was 50 µg/mL (≈ 62.7 µM). The MIC [22] was 0.3 µg/mL (≈ 0.376 µM), the MIC [23] was 2 µg/mL (≈ 2.51 µM) and the MIC [24] was > 100 µg/mL. For the same compound, the MIC [25] was > 200 µg/mL, the MIC [26] was 1 µg/mL (≈ 1.25 µM) and the MIC [27] was 6 µg/mL (≈ 7.53 µM). For the same compound, the MIC [28] was > 100 µg/mL, the MIC [29] was 50 µg/mL (≈ 62.7 µM) and the “activity against Mycoplasma gallisepticum in vivo” value [30] was “no activity”.

Source: patent US4062948A, “Dihydromocimycin antibiotics” (Gist-Brocades N.V., priority 1970, dated 1977)
